In publication PMC2736638 (Journal of medicinal chemistry, 2009):
Where “and” joins values, the source holds several entries; their conditions need not be identical. Identical values can stand only once. Entries after “also recorded” stand apart in the source; their conditions may differ.

How the values were obtained:
HIV-1IIIB = HIV-1IIIB replication inhibition assay in MT-2 lymphocytes; format: cell-based; conditions: for TI = CC50/EC50: HIV-1IIIB, MT-2 cells
Solubility = format: physicochemical; conditions: qualitative
[1] = incubation time 0 min; 3 μM, 0.2 mg/mL human liver microsome, NADPH
HIV-1NL4-3 = HIV-1NL4-3 replication inhibition assay in MT-4 lymphocytes; format: cell-based; conditions: HIV-1NL4-3, MT-4 cells
in vitro = conditions: human, microsomes, pH 7.4

C=C(C)[C@@H]1CC[C@]2(C(=O)N3CCC(CCCC(=O)NCCCN4CCOCC4)CC3)CC[C@]3(C)[C@H](CC[C@@H]4[C@@]5(C)CC[C@H](OC(=O)CC(C)(C)C(=O)O)C(C)(C)[C@@H]5CC[C@]43C)[C@@H]12 [Compound 48, N’-[N-[3β-O-(3′,3′-Dimethylsuccinyl)-lup-20(29)-en-28-oyl]-4-piperidine-butanoyl]-3-aminopropylmorpholine]
TI = CC50/EC50 (HIV-1IIIB): 3,087

C=C(C)[C@@H]1CC[C@]2(C(=O)N3CCC(CCCC(=O)N4CCOCC4)CC3)CC[C@]3(C)[C@H](CC[C@@H]4[C@@]5(C)CC[C@H](OC(=O)CC(C)(C)C(=O)O)C(C)(C)[C@@H]5CC[C@]43C)[C@@H]12 [Compound 46, N’-[N-[3β-O-(3′,3′-Dimethylsuccinyl)-lup-20(29)-en-28-oyl]-4-piperidine-butanoyl]-morpholine]
TI = CC50/EC50 (HIV-1IIIB): 1,748

C=C(C)[C@@H]1CC[C@]2(C(=O)N[C@@H](CC(C)C)C(=O)O)CC[C@]3(C)[C@H](CC[C@@H]4[C@@]5(C)CC[C@H](O)C(C)(C)[C@@H]5CC[C@]43C)[C@@H]12 [Compound 22, N-[3β-Hydroxy-lup-20(29)-en-28-oyl]-leucine]
EC50: concentration that inhibits HIV-1IIIB replication by 50% (HIV-1IIIB; HIV-1IIIB infected MT-2 cells, averages of at least three experiments): did not exhibit antiviral replication activity

C=C(COCCN1CCOCC1)[C@@H]1CC[C@]2(C(=O)NCCCCCCCC(=O)NC)CC[C@]3(C)[C@H](CC[C@@H]4[C@@]5(C)CC[C@H](O)C(C)(C)[C@@H]5CC[C@]43C)[C@@H]12 [Compound 21]
solubility (Solubility): improved solubility; also recorded: good solubility

C=C(C)[C@@H]1CC[C@]2(C(=O)NCCCCCCCC(=O)O)CC[C@]3(C)[C@H](CC[C@@H]4[C@@]5(C)CC[C@H](O)C(C)(C)[C@@H]5CC[C@]43C)[C@@H]12 [Compound 23, N-[3β-Hydroxy-lup-20(29)-en-28-oyl]-8-aminooctanoic acid]
Persentage of Remaining Parent Compounds (X±SD)% [1]: 100.0%

C=C(COCCN1CCOCC1)[C@@H]1CC[C@]2(C(=O)NCCCCCCCC(=O)O)CC[C@]3(C)[C@H](CC[C@@H]4[C@@]5(C)CC[C@H](O)C(C)(C)[C@@H]5CC[C@]43C)[C@@H]12 [Compound 20, N-[3β-Hydroxy-30-(2′-morpholinoethoxy)-lup-20(29)-en-28-oyl]-8-aminooctanoic acid]
solubility (Solubility): increase in the derivative’s solubility

C=C(C)[C@@H]1CC[C@]2(C(=O)NCCCCCCCC(=O)N[C@@H](CC(C)C)[C@H](O)CC(=O)O)CC[C@]3(C)[C@H](CC[C@@H]4[C@@]5(C)CC[C@H](O)C(C)(C)[C@@H]5CC[C@]43C)[C@@H]12 [Compound 3b, (3R,4S)-N’-[N-[3β-hydroxylup-20(29)-en-28-oyl]-8-aminooctanoyl]-4-amino-3-hydroxy-6-methylheptanoic acid]
TI = CC50/EC50 (HIV-1NL4-3): > 112.4

C=C(C)[C@@H]1CC[C@]2(C(=O)N3CCC(CCCC(=O)O)CC3)CC[C@]3(C)[C@H](CC[C@@H]4[C@@]5(C)CC[C@H](OC(=O)CC(C)(C)C(=O)O)C(C)(C)[C@@H]5CC[C@]43C)[C@@H]12 [Compound 39, N-[3β-O-(3′,3′-Dimethylsuccinyl)-lup-20(29)-en-28-oyl]-4-piperidine butyric acid]
TI = CC50/EC50 (HIV-1IIIB): 1.4 ×10^3 and 1,389

C=C(CBr)[C@@H]1CC[C@]2(C(=O)N[C@@H](CC(C)C)C(=O)O)CC[C@]3(C)[C@H](CC[C@@H]4[C@@]5(C)CC[C@H](OC(=O)CC(C)(C)C(=O)O)C(C)(C)[C@@H]5CC[C@]43C)[C@@H]12 [Compound 30, N-[3β-O-(3′,3′-Dimethylsuccinyl)-30-bromo-lup-20(29)-en-28-oyl]-leucine]
TI = CC50/EC50 (HIV-1IIIB): 3.0×10^3 and 3,022

C=C(C)[C@@H]1CC[C@]2(C(=O)N3CCC(CCCC(=O)NC)CC3)CC[C@]3(C)[C@H](CC[C@@H]4[C@@]5(C)CC[C@H](OC(=O)CC(C)(C)C(=O)O)C(C)(C)[C@@H]5CC[C@]43C)[C@@H]12 [Compound 45, N’-[N-[3β-O-(3′,3′-Dimethylsuccinyl)-lup-20(29)-en-28-oyl]-4-piperidine-butanoyl]-aminomethane]
TI = CC50/EC50 (HIV-1NL4-3): > 41.7

C=C(C)[C@@H]1CC[C@]2(C(=O)N3CCC(CCCC(=O)NCCN4CCOCC4)CC3)CC[C@]3(C)[C@H](CC[C@@H]4[C@@]5(C)CC[C@H](OC(=O)CC(C)(C)C(=O)O)C(C)(C)[C@@H]5CC[C@]43C)[C@@H]12 [Compound 47, N’-[N-[3β-O-(3′,3′-Dimethylsuccinyl)-lup-20(29)-en-28-oyl]-4-piperidine-butanoyl]-2-aminoethylmorpholine]
TI = CC50/EC50 (HIV-1IIIB): 2,473

C=C(C)[C@@H]1CC[C@]2(C(=O)N3CCC(CCCC(=O)O)CC3)CC[C@]3(C)[C@H](CC[C@@H]4[C@@]5(C)CC[C@H](O)C(C)(C)[C@@H]5CC[C@]43C)[C@@H]12 [Compound 38, N-[3β-Hydroxy-lup-20(29)-en-28-oyl]-4-piperidine butyric acid]
half-life (in vitro): ~2.08 h
Persentage of Remaining Parent Compounds (X±SD)% [1]: 100.0%
